Consider 52 compounds from PubChem BioAssay AID1996.

Values after ≈ are worked out from the molar mass of the structure shown.

For this data set the following is noted: buffer; pH 7.4; 200.0 µM.
Take `Cc1c(C)c(C)c2[nH]c(-c3ccc4c(c3)OCO4)nc2c1C`: the solubility (kinetic) (as a rule, the concentration staying in solution when a stock, usually in DMSO, is diluted into the medium) was below 0.3 µg/mL.

`O=C(NCCN1CCOCC1)Nc1cccc(Cl)c1` gave a solubility (kinetic) of 40.1 µg/mL (≈ 141 µM). To `COC(=O)c1ccccc1NS(=O)(=O)c1c(C)noc1C` belongs above 46.5 µg/mL. To `COc1ccc(NC(=O)CN2C(=O)COc3ccccc32)cc1OC` belongs 3 µg/mL (≈ 8.76 µM); to `CCOC(=O)N1CCN(c2nc3ccccn3c(=O)c2C=O)CC1`, above 49.6 µg/mL. The result for `CC(=O)Nc1ccc(SCC(=O)NC(=O)c2ccc(S(=O)(=O)N(C)C)cc2)cc1` reads above 65.3 µg/mL; that for `CC(=O)N(c1ccc(Cl)cc1)c1nc(C)cc(C)c1C#N`, above 45 µg/mL; that for `CCOc1ccc(NC(=O)COC(=O)c2ccc3c(c2)OCO3)cc1`, 4 µg/mL (≈ 11.7 µM).

As to `CCOCCCn1cnc2c3cc(F)ccc3n(C)c2c1=O`, the kinetic solubility amounted to 10.4 µg/mL (≈ 34.3 µM). For the compound `Cc1ccsc1C(=O)C1CCCN(Cc2cnc(N)nc2)C1` (configuration not stated), the kinetic solubility came out at 37.8 µg/mL (≈ 119 µM).

`Cc1ccc(NC(=O)O/N=C/c2cccc([N+](=O)[O-])c2)cc1` had a solubility (kinetic) of 9.3 µg/mL (≈ 31.1 µM). To `Cc1ccc(NC(=O)NCCCN2CCCC2=O)cc1C` belongs above 43.4 µg/mL; to `CCN(CC)c1ccc(NC(=S)NC(=O)c2cccs2)cc1`, below 0.2 µg/mL; to `Cc1ccc(C(=O)NCC(=O)Nc2ccncc2)cc1C`, 12.3 µg/mL (≈ 43.4 µM). To `c1ccc(-c2nc(-c3ccc(-c4ccon4)s3)no2)cc1` belongs 0.6 µg/mL (≈ 2.03 µM); to `O=C(NC(O)C(=O)c1ccc(F)cc1)c1ccc(F)cc1` (configuration not stated), above 43.7 µg/mL. To `CCc1nc(CN2CCN(c3cc(C(F)(F)F)ccn3)CC2)c(C)[nH]1` belongs 47.6 µg/mL (≈ 135 µM); to `CC(=O)c1c(C)[nH]c(C(=O)COC(=O)Cc2ccccc2F)c1C`, above 49.7 µg/mL. As to `CN(C)S(=O)(=O)c1cccc(NC(=O)CC23CC4CC(CC(C4)C2)C3)c1`, the kinetic solubility was found to be 10.8 µg/mL (≈ 28.7 µM). To `COCCNC(=O)Cc1c(C)c2c(cc(C)c3c(C(C)(C)C)coc32)oc1=O` belongs 3.2 µg/mL (≈ 8.3 µM). To `O=C(O)C1C2CCC(O2)C1C(=O)Nc1ccc(F)c(Cl)c1` (configuration not stated) belongs above 47.1 µg/mL. To `O=C(O)c1ccccc1C(=O)Nc1ccccc1NC(=O)c1ccccc1C(=O)O` belongs above 60.7 µg/mL; to `CCOc1ccccc1NC(=O)Cc1coc2ccc(C)cc12`, 7.3 µg/mL (≈ 23.6 µM). As to `CN(CC(=O)Nc1cccc(F)c1)C(=O)c1cccc2ccccc12`, the solubility (kinetic) is above 50.5 µg/mL. The result for `O=C(O)c1cc2c(cn1)[nH]c1ccccc12` reads above 31.8 µg/mL. To `Cc1ccc(-c2csc(NC(=O)c3c(C)noc3C)n2)cc1C` belongs 1.7 µg/mL (≈ 5.19 µM); to `CC(C)CCNC(=O)C(=O)NCc1ccccc1`, 2.6 µg/mL (≈ 10.5 µM). The compound `Cc1ccc(N2C(=O)CC(=O)NC2=O)cc1Cl` registered a kinetic solubility above 37.9 µg/mL.

`Cc1ccc(S(=O)(=O)NC23CC4CC(CC(C4)C2)C3)cc1` yielded a kinetic solubility of 2.4 µg/mL (≈ 7.86 µM).

`O=C(Nc1ccc(F)cc1F)N1CCCN(c2ccc(C(F)(F)F)cn2)CC1` yielded a solubility (kinetic) of 7.3 µg/mL (≈ 18.2 µM). To `COc1cc(C(CN)CC(=O)O)ccc1O.Cl` (configuration not stated) belongs above 39.3 µg/mL; to `O=C(COc1ccccc1Cl)N1CCc2ccccc21`, 1.1 µg/mL (≈ 3.82 µM). For `Clc1ccccc1/C=C/c1nc(-c2cccnc2)no1`, the kinetic solubility was 0.8 µg/mL (≈ 2.82 µM). To `CC1CCCCC1NC(=O)COC(=O)c1ccc([N+](=O)[O-])o1` (configuration not stated) belongs above 46.5 µg/mL; to `CCc1ccccc1NC(=S)N1CCN(c2ccccc2F)CC1`, 4.4 µg/mL (≈ 12.8 µM).

With `COc1ccc(NC(=O)c2cc3ccccc3[nH]2)cc1`, the kinetic solubility stood at 1.5 µg/mL (≈ 5.63 µM). The result for `COc1ccccc1C1=NC(c2ccccc2)CN1c1ccccc1` (configuration not stated) reads 0.6 µg/mL (≈ 1.83 µM). The result for `CC1C(=O)Nc2ccccc2N1C(=O)c1c(F)cccc1F` (configuration not stated) reads above 45.3 µg/mL; that for `N#CCC(=O)Nc1ccc(C(=O)OCC(=O)c2c[nH]c3ccccc23)cc1`, 4.7 µg/mL (≈ 13 µM); that for `CCCOc1ccccc1/C=C1\SC(N)=NC1=O`, 2.1 µg/mL (≈ 8.01 µM). To `O=C(O)c1ccc(/C=N/O)cc1` belongs above 24.8 µg/mL; to `CCCCNC(=O)COC(=O)c1cc(C)oc1C`, above 38 µg/mL. The compound `COc1ccc2oc(-c3ccccc3)c(C(=O)N(C)C)c2c1` showed a solubility (kinetic) above 44.3 µg/mL. The result for `Clc1c2c(nc3ccccc13)CCC2` reads 4 µg/mL (≈ 19.6 µM). The result for `CCC(=O)N(CCC(c1ccc(C)cc1)c1ccco1)Cc1ccco1` (configuration not stated) reads 45.6 µg/mL (≈ 130 µM); that for `Cc1ccnc(NCc2ccccc2O)c1`, 23 µg/mL (≈ 107 µM); that for `CC1CCCC(C)N1C(=O)COC(=O)c1ccc2ccccc2n1` (configuration not stated), 15.3 µg/mL (≈ 46.9 µM). The result for `CCOc1ccccc1NS(=O)(=O)c1ccc2[nH]c(=O)ccc2c1` reads 48.3 µg/mL (≈ 140 µM); that for `CCC(C)n1c(O)c(C=NCC2CCCO2)c(=O)[nH]c1=S` (configuration not stated), 38.3 µg/mL (≈ 123 µM). In the case of `O=C(/C=C/c1ccco1)Nc1ccc2nc3n(c(=O)c2c1)CCCC3`, the solubility (kinetic) is 3.7 µg/mL (≈ 11 µM). The result for `Cc1cccnc1NC(=O)Nc1ccccc1` reads 4.1 µg/mL (≈ 18 µM); that for `CCc1ccc(Nc2nc(C)cc(C)c2C(N)=O)cc1`, above 40.4 µg/mL.
